Measured values as given in PubChem BioAssay AID248 (DTP/NCI, 2004).
Where “and” joins values, the source holds several entries; their conditions need not be identical. Identical values can stand only once. Toxic doses and inconclusive results are not listed. No stated cut-off is given here; in the data, active means T/C of 150% or more; inactive means T/C below 125%.

System: L1210 leukemia ip in BDF1 mice, survival T/C
Experiment: NCI In Vivo Anticancer Drug Screen. Data for tumor model L1210 Leukemia (intraperitoneal) in B6D2F1 (BDF1) mice
Details: endpoint: mean survival time, higher = longer survival
Procedure, shortened: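 Survival endpoint. Drug-treated group vs vehicle group, expressed as T divided by C. Tumor passaged by transplantation.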

[1] = dose: 100.0 mg/kg/injection, schedule: Q01DX001 (ip), vehicle: saline
[2] = dose: 200.0 mg/kg/injection, schedule: Q01DX001 (ip), vehicle: saline
[3] = dose: 400.0 mg/kg/injection, schedule: Q01DX001 (ip), vehicle: saline
[4] = dose: 100.0 mg/kg/injection, schedule: Q01DX009 (ip), vehicle: Klucel (hydroxypropylcellulose) (HPC)
[5] = dose: 100.0 mg/kg/injection, schedule: Q04DX003 (ip), vehicle: Klucel (hydroxypropylcellulose) (HPC)
[6] = dose: 200.0 mg/kg/injection, schedule: Q01DX009 (ip), vehicle: Klucel (hydroxypropylcellulose) (HPC)
[7] = dose: 200.0 mg/kg/injection, schedule: Q04DX003 (ip), vehicle: Klucel (hydroxypropylcellulose) (HPC)
[8] = dose: 400.0 mg/kg/injection, schedule: Q01DX009 (ip), vehicle: Klucel (hydroxypropylcellulose) (HPC)
[9] = dose: 400.0 mg/kg/injection, schedule: Q04DX003 (ip), vehicle: Klucel (hydroxypropylcellulose) (HPC)
[10] = dose: 100.0 mg/kg/injection, schedule: Q01DX009 (ip), vehicle: saline with Tween-80
[11] = dose: 200.0 mg/kg/injection, schedule: Q01DX009 (ip), vehicle: saline with Tween-80
[12] = dose: 400.0 mg/kg/injection, schedule: Q01DX009 (ip), vehicle: saline with Tween-80
[13] = dose: 100.0 mg/kg/injection, schedule: Q01DX001 (ip), vehicle: Klucel (hydroxypropylcellulose) (HPC)

Measured: T/C

S=C1SCN(CCc2ccccc2)CN1CCc1ccccc1
inactive: dose: 100.0 mg/kg/injection, schedule: Q04DX002 (ip), vehicle: gum acacia 92 % of control | dose: 200.0 mg/kg/injection, schedule: Q04DX002 (ip), vehicle: gum acacia 98 % of control | dose: 400.0 mg/kg/injection, schedule: Q04DX002 (ip), vehicle: gum acacia 92 % of control

O=[N+]([O-])C1CC=CCC1c1ccc(C2CC=CCC2[N+](=O)[O-])cc1 (stereo not given)
inactive: dose: 100.0 mg/kg/injection, schedule: Q01DX001 (ip), vehicle: carboxymethylcellulose (CMC) 96 % of control | dose: 200.0 mg/kg/injection, schedule: Q01DX001 (ip), vehicle: carboxymethylcellulose (CMC) 94 % of control | dose: 400.0 mg/kg/injection, schedule: Q01DX001 (ip), vehicle: carboxymethylcellulose (CMC) 92 % of control

O=C(O)c1ccccc1Oc1ccccc1C(=O)O
inactive: dose: 100.0 mg/kg/injection, schedule: Q04DX003 (ip), vehicle: saline 102 % of control | dose: 200.0 mg/kg/injection, schedule: Q04DX003 (ip), vehicle: saline 100 % of control | dose: 400.0 mg/kg/injection, schedule: Q04DX003 (ip), vehicle: saline 91 % of control

O=CNC(Cc1cccc(N(CCCl)CCCl)c1)C(=O)O (stereo not given)
inactive: dose: 8.0 mg/kg/injection, schedule: Q01DX Z (ip), vehicle: methylcellulose (MC) 106 % of control | dose: 12.0 mg/kg/injection, schedule: Q01DX Z (ip), vehicle: methylcellulose (MC) 95 % of control | dose: 18.0 mg/kg/injection, schedule: Q01DX Z (ip), vehicle: methylcellulose (MC) 103 % of control | dose: 27.0 mg/kg/injection, schedule: Q01DX Z (ip), vehicle: methylcellulose (MC) 97 % of control

CCCCc1ccc(C2=CC(=O)C(c3ccc(CCCC)cc3)=CC2=O)cc1
inactive: [1] 98 % of control | [2] 95 % of control | [3] 97 % of control

CC1CCC(C(C)C)/C(=N/NC(=O)c2ccccc2)C1 (stereo not given)
inactive: [4] 98 % of control | [5] 104 % of control | [6] 93 % of control | [7] 102 % of control | [8] 86 % of control | [9] 102 % of control

CCOC(=O)CCCN(c1[nH]c(C)c(C)c1C#N)S(=O)(=O)c1ccc(C)cc1
inactive: dose: 50.0 mg/kg/injection, schedule: Q01DX009 (ip), vehicle: saline with Tween-80 93 % of control | dose: 50.0 mg/kg/injection, schedule: Q04DX003 (ip), vehicle: saline with Tween-80 93 % of control | [10] 96 % of control | dose: 100.0 mg/kg/injection, schedule: Q04DX003 (ip), vehicle: saline with Tween-80 90 % of control | [11] 90 % of control | dose: 200.0 mg/kg/injection, schedule: Q04DX003 (ip), vehicle: saline with Tween-80 101 % of control | [12] 100 % of control | dose: 400.0 mg/kg/injection, schedule: Q04DX003 (ip), vehicle: saline with Tween-80 95 % of control

C(=C\c1cc[n+](CCc2ccccc2)cc1)/c1ccccc1
inactive: dose: 6.25 mg/kg/injection, schedule: Q04DX003 (ip), vehicle: saline with Tween-80 110 % of control | dose: 12.5 mg/kg/injection, schedule: Q04DX003 (ip), vehicle: saline with Tween-80 89 % of control | dose: 25.0 mg/kg/injection, schedule: Q04DX003 (ip), vehicle: saline with Tween-80 101 % of control

COc1cc(C=Nc2ccc(-n3ccnc3C)cc2)ccc1N(CCCl)CCCl
inactive: dose: 1.0 mg/kg/injection, schedule: Q01DX009 (ip), vehicle: Klucel (hydroxypropylcellulose) (HPC) 110 % of control | dose: 2.0 mg/kg/injection, schedule: Q01DX009 (ip), vehicle: Klucel (hydroxypropylcellulose) (HPC) 114 % of control | dose: 2.5 mg/kg/injection, schedule: Q01DX009 (ip), vehicle: Klucel (hydroxypropylcellulose) (HPC) 104 % of control and 106 % of control | dose: 3.8 mg/kg/injection, schedule: Q01DX009 (ip), vehicle: Klucel (hydroxypropylcellulose) (HPC) 104 % of control | dose: 5.0 mg/kg/injection, schedule: Q01DX009 (ip), vehicle: Klucel (hydroxypropylcellulose) (HPC) 114 % of control | dose: 8.8 mg/kg/injection, schedule: Q04DX003 (ip), vehicle: Klucel (hydroxypropylcellulose) (HPC) 98 % of control and 123 % of control | dose: 19.0 mg/kg/injection, schedule: Q01DX009 (ip), vehicle: Klucel (hydroxypropylcellulose) (HPC) 110 % of control | dose: 20.0 mg/kg/injection, schedule: Q01DX009 (ip), vehicle: Klucel (hydroxypropylcellulose) (HPC) 124 % of control | dose: 29.0 mg/kg/injection, schedule: Q04DX003 (ip), vehicle: Klucel (hydroxypropylcellulose) (HPC) 102 % of control | dose: 30.0 mg/kg/injection, schedule: Q04DX003 (ip), vehicle: Klucel (hydroxypropylcellulose) (HPC) 104 % of control

O=S(=O)(CCCl)c1ccc2ccccc2c1
inactive: dose: 25.0 mg/kg/injection, schedule: Q04DX002 (ip), vehicle: Klucel (hydroxypropylcellulose) (HPC) 100 % of control | dose: 50.0 mg/kg/injection, schedule: Q04DX002 (ip), vehicle: Klucel (hydroxypropylcellulose) (HPC) 104 % of control | dose: 100.0 mg/kg/injection, schedule: Q04DX002 (ip), vehicle: Klucel (hydroxypropylcellulose) (HPC) 96 % of control

Cc1nc2c3nc(C)oc3c3ccccc3c2o1
inactive: [13] 97 % of control | dose: 200.0 mg/kg/injection, schedule: Q01DX001 (ip), vehicle: Klucel (hydroxypropylcellulose) (HPC) 89 % of control | dose: 400.0 mg/kg/injection, schedule: Q01DX001 (ip), vehicle: Klucel (hydroxypropylcellulose) (HPC) 86 % of control

CCN(CC)S(=O)(=O)c1ccc(OC)c(NC(=O)c2ccc(C(=O)Nc3cc(S(=O)(=O)N(CC)CC)ccc3OC)cc2)c1
inactive: [1] 97 % of control | [2] 94 % of control | [3] 102 % of control

O=C1NC(=O)/C(=C\c2ccc3c(c2)OCO3)S1
inactive: dose: 2.5 mg/kg/injection, schedule: Q01DX009 (ip), vehicle: saline with Tween-80 96 % of control | dose: 5.0 mg/kg/injection, schedule: Q01DX009 (ip), vehicle: saline with Tween-80 91 % of control | dose: 10.0 mg/kg/injection, schedule: Q01DX009 (ip), vehicle: saline with Tween-80 89 % of control

Nc1nc(/C=C/C=C/c2ccccc2)c(CCCCc2ccccc2)c(=O)[nH]1
inactive: dose: 25.0 mg/kg/injection, schedule: Q01DX001 (ip), vehicle: Klucel (hydroxypropylcellulose) (HPC) 94 % of control | dose: 50.0 mg/kg/injection, schedule: Q01DX001 (ip), vehicle: Klucel (hydroxypropylcellulose) (HPC) 98 % of control | [13] 96 % of control

O=C(N/N=C/c1ccc2c(c1)OCO2)c1ccncc1
inactive: [10] 102 % of control | [11] 94 % of control | [12] 104 % of control

N#Cc1ncc(-c2ccccc2)nc1C#N
inactive: [10] 103 % of control | [11] 100 % of control | [12] 88 % of control

CCn1ccc(=O)c2cc([N+](=O)[O-])ccc21
inactive: [4] 95 % of control | [5] 92 % of control | [6] 103 % of control | [7] 92 % of control | [8] 92 % of control | [9] 91 % of control

COc1cc2c(cc1OC)N(S(=O)(=O)c1ccc(C)cc1)CCCC2=O
inactive: [4] 96 % of control | [5] 96 % of control | [6] 91 % of control | [7] 93 % of control | [8] 93 % of control | [9] 102 % of control

COc1cc(OC)c(/C=C2\N=C(c3ccccc3)OC2=O)c(OC)c1
inactive: dose: 100.0 mg/kg/injection, schedule: Q04DX002 (ip), vehicle: other 91 % of control | dose: 200.0 mg/kg/injection, schedule: Q04DX002 (ip), vehicle: other 102 % of control | dose: 400.0 mg/kg/injection, schedule: Q04DX002 (ip), vehicle: other 88 % of control

CCC(O)c1cnc(OCc2ccccc2)nc1OCc1ccccc1 (stereo not given)
inactive: [4] 94 % of control | [5] 96 % of control | [6] 95 % of control | [7] 95 % of control | [8] 90 % of control | [9] 100 % of control
